Test results: PubChem BioAssay (NCI)
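Step 1: Grow cells in 96-well plates. Step 2: Expose to compound for 48 hours at 5 concentrations. Step 3: Interpolate endpoints linearly; if unreached, use highest concentration. TGI marks complete inhibition of growth.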

Legend:
Assay in all cases: NCI-60 cell line screen, 48 h
[1] = tested on: MCF7 breast
[2] = tested on: HCT-15 colon
[3] = tested on: NCI-H23 lung
[4] = tested on: OVCAR-8 ovarian
[5] = tested on: UACC-257 melanoma
[6] = tested on: HCC-2998 colon
[7] = tested on: SK-MEL-28 melanoma
[8] = tested on: NCI-H522 lung
[9] = tested on: SK-MEL-5 melanoma
[10] = tested on: OVCAR-3 ovarian
[11] = tested on: MOLT-4 leukemia
[12] = tested on: NCI-H460 lung
[13] = tested on: SNB-75 CNS
[14] = tested on: NCI-H226 lung
[15] = tested on: RPMI-8226 leukemia
[16] = tested on: OVCAR-4 ovarian
[17] = tested on: A549 NSCLC
[18] = tested on: SW-620 colon
[19] = tested on: TK-10 renal
[20] = tested on: KM12 colon
[21] = tested on: IGROV1 ovarian
[22] = tested on: HT29 colon
[23] = tested on: COLO 205 colon
[24] = tested on: T-47D breast
[25] = tested on: NCI/ADR-RES ovarian
[26] = tested on: CCRF-CEM leukemia
[27] = tested on: SN12C renal
[28] = tested on: UO-31 renal
[29] = tested on: HOP-92 NSCLC
[30] = tested on: 786-0 renal
[31] = tested on: U251 CNS
[32] = tested on: DU-145 prostate
[33] = tested on: SNB-19 CNS
[34] = tested on: SF-295 CNS
[35] = tested on: M14 melanoma
[36] = tested on: HCT-116 colon
[37] = tested on: HS 578T breast
[38] = tested on: SK-MEL-2 melanoma
[39] = tested on: SR leukemia
[40] = tested on: RXF 393 renal
[41] = tested on: LOX IMVI melanoma
[42] = tested on: HOP-62 NSCLC
[43] = tested on: EKVX NSCLC
[44] = tested on: SK-OV-3 ovarian
[45] = tested on: HL-60(TB) leukemia
[46] = tested on: MDA-MB-231 breast
[47] = tested on: SF-268 CNS
[48] = tested on: K-562 leukemia
[49] = tested on: CAKI-1 renal
[50] = tested on: BT-549 breast
[51] = tested on: UACC-62 melanoma
[52] = tested on: MDA-N
[53] = tested on: PC-3 prostate
[54] = tested on: MDA-MB-435
[55] = tested on: SF-539 CNS
[56] = tested on: MALME-3M melanoma
[57] = tested on: OVCAR-5 ovarian
[58] = tested on: ACHN renal
[59] = tested on: A498 renal

Measured: TGI

CC(=O)OCC1CCC(=C2C(=O)OC(C)(C)OC2=O)N1 (configuration not stated)
not listed: [57] | [58] | [59]
> 100 µM: all other assays above

CCOC1CN(C)C(=Nc2cccc3ccccc23)S1 (configuration not stated)
not listed: [38] | [40] | [45]
> 10 µM: all other assays above
